Data taken from paper doi:10.1101/2025.05.08.652848v1 (biorxiv, 2025).

Tests used:
Type in all cases: binding
[1] = target: T1, RXRA:PPARG LBD heterodimer (Homo sapiens, UniProt P37231); test: TR-FRET NCOR1 ID2 peptide recruitment
T1 sequence (P37231 231-505): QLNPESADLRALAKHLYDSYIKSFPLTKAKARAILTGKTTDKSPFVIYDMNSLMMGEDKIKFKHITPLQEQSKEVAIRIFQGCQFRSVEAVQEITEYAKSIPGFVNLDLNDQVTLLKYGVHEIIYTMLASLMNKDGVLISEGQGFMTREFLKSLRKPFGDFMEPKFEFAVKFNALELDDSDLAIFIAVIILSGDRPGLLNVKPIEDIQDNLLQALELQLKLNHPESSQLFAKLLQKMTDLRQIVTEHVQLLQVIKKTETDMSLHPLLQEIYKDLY
T1 sequence (P19793 228-462 partner): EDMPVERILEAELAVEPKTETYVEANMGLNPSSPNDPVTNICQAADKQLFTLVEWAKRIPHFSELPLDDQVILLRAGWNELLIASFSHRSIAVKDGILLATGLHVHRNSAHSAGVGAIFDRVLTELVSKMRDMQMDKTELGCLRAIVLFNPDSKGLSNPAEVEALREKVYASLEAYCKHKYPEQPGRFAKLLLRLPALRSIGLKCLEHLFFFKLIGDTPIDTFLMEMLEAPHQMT

[2] = target: T1, RXRA:PPARG LBD heterodimer; test: TR-FRET MED1 LxxLL peptide blockade
[3] = target: T2, PPARD/RXRA LBD heterodimer (Homo sapiens, UniProt Q03181); test: TR-FRET NCOR1 ID2 peptide recruitment
T2 sequence (Q03181 171-441 limits assumed): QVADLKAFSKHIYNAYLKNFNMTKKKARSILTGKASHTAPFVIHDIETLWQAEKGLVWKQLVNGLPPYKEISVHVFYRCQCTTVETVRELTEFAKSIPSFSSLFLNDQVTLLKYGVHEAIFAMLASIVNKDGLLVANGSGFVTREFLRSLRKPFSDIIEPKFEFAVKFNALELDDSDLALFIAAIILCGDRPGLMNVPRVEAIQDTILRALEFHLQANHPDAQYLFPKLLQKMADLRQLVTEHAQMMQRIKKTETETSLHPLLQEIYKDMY
T2 sequence (P19793 228-462 partner): T1 sequence (P19793 228-462 partner)

[4] = target: T3, PPARA/RXRA LBD heterodimer (Homo sapiens, UniProt Q07869); test: TR-FRET NCOR1 ID2 peptide recruitment
T3 sequence (Q07869 196-468 limits assumed): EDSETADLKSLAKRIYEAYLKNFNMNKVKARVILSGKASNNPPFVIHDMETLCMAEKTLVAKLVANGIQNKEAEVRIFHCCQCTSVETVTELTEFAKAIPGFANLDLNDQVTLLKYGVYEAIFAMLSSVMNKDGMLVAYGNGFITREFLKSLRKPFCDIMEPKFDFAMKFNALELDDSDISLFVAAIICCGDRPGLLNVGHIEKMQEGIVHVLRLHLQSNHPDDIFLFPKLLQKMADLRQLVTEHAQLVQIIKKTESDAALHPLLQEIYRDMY
T3 sequence (P19793 228-462 partner): T1 sequence (P19793 228-462 partner)

| SMILES | EC50 [1] [nM] | IC50 [2] [nM] | EC50 [3] [nM] | EC50 [4] [nM] |
| --- | --- | --- | --- | --- |
| O=C(Nc1ccccc1)c1cc([N+](=O)[O-])ccc1Cl [GW9662] | – | 97 ± 38 | – | – |
| CS(=O)(=O)c1ccc(C#N)cc1-c1cc(=O)c2c(F)cc(F)cc2[nH]1 [FX-909, 3-(5,7-difluoro-4-oxo-1,4-dihydroquinolin-2-yl)-4-(methylsulfonyl)benzonitrile] | 200 ± 30 | – | > 100000 | > 100000 |
| N#Cc1ccc(F)c(-c2cc(=O)c3c(F)cc(F)cc3[nH]2)c1 [FTX-6822, 3-(5,7-difluoro-4-oxo-1,4-dihydro-2-quinolyl)-4-fluorobenzonitrile] | 5000 | – | – | – |

Continued by falling EC50 [1], values first:

| EC50 [1] [nM] | IC50 [2] [nM] | EC50 [3] [nM] | EC50 [4] [nM] | SMILES |
| --- | --- | --- | --- | --- |
| 690 ± 70 | 740 ± 160 | – | – | N#Cc1ccc(Cl)c(-c2cc(=O)c3c(F)cc(F)cc3[nH]2)c1 [FTX-6746, 4-Chloro-3-(5,7-difluoro-4-oxo-1,4-dihydroquinolin-2-yl)benzonitrile] |
| 70 ± 8 | – | – | – | N#Cc1ccc(Br)c(-c2cc(=O)c3c(F)cc(F)cc3[nH]2)c1 [FTX-6713, 4-bromo-3-(5,7-difluoro-4-oxo-1,4-dihydroquinolin-2-yl)benzonitrile] |
